Where two headings read alike, the source gives them in different places.
Assays:
HBV = assay: HBV-DNA antiviral assay using HepG2.117 cells; type: cell-based, HBV genotype D; settings: HBV DNA inhibition, intracellular HBV DNA by qPCR, HepG2.117 cells, 3 days incubation, read-out: EC50
Method: (§1) The following assay procedure describes the HBV antiviral assay, using HepG2.117 cells, which carry a stably integrated genotype D HBV genome under the control of a Tet-off promoter, and intracellular HBV DNA quantification as endpoint. Cell viability is assessed in parallel by measuring the intracellular ATP content using CellTiter-Glo 2.0 (Promega).
On day 0, HepG2.117 cells (which are maintained in routine cell culture with doxycycline present in the medium at a final concentration of 1 μg/mL) are seeded in 96-well plates (white with clear bottom) at a density of 2.0×10^4 cells/well (0.1 mL/well) in medium without doxycycline to induce pgRNA transcription and subsequent formation of HBV particles. The cells are incubated at 37° C. and 5% CO2.
(§2) On day 1, medium is removed from each well, the test articles are diluted in culture medium without doxcycyline and 100 μL was added to cell culture wells (9 concentrations, 4-fold dilution). For each plate, 6 untreated (merely DMSO) wells are included. The final concentration of DMSO in the culture medium is 2%. Each plate is prepared in duplicate (one for HBV DNA extraction, one for CellTiter-Glo 2.0 measurement). The cells are incubated at 37° C. and 5% CO2 for 3 days.
(§3) On day 4, cell viability is assessed using CellTiter-Glo 2.0 and cell lysates are prepared for HBV DNA extraction and subsequent quantification by qPCR.
Medium is removed from each well and 100 μL of 0.33% NP-40 in H2O was added to each well. Plates are sealed, incubated at 4° C. for 5 mins, vortexed extensively and centrifuged briefly. Next, 35 μL of lysate is added to 65 μL QuickExtract DNA Extraction Solution (Epicentre) in a PCR plate for each well. PCR plate is incubated at 65° C. for 6 mins, 98° C. for 2 mins and finally cooled to 4° C. HBV DNA is then quantified by qPCR with HBV-specific primers and probes as specified in Table 2 using the Bio-Rad SSOAdvanced Universal Probes Supermix on a CFX96 machine (Bio-Rad). The PCR cycle program consisted of 95° C. for 3 mins, followed by 40 cycles at 95° C. for 10 sec and 60° C. for 30 sec.
A DNA standard is prepared by dilution of an IDT gBlock corresponding to the amplicon with concentrations ranging from 10^2 to 10^8 copies/input (i.e., per 4 μL) and used to generate a standard curve by plotting Cq values vs. HBV DNA standard concentration. The quantity of HBV DNA in each sample is determined by interpolating from the standard curve.
(§4) Cell viability is calculated as follows: % Cell viability=(luminescence value of test sample)/(average luminescence value of 2% DMSO control)×100%. HBV DNA inhibition was calculated as follows: 100−(HBV DNA copy number of test sample)/(average HBV DNA copy number of 2% DMSO control)×100%. No normalization to entecavir is required due to the excellent dynamic window of this assay. The CC50, EC50 and EC90 values were determined by dose-response curves fitted using non-linear regression.

HepG2.117 cells = assay: Cell viability by CellTiter-Glo 2.0 (intracellular ATP) in HepG2.117 cells; type: cell-based; settings: CellTiter-Glo 2.0, HepG2.117 cells, 3 days incubation
Method: as §1, §2, §3
(§5) Using the other plates, the cell viability is quantified by CellTiter-Glo 2.0 according to the manufacturer's manual. In brief, 100 μL of reagent solution is added to the culture plates and shaken for 2′. The plates are incubated at rt for 10 min and luminescence signal is subsequently measured on a VarioSkan Lux (ThermoFisher) plate reader.
as §4

[1] = as above; type: cell-based; settings: human, CellTiter-Glo 2.0, HepG2.117 cells, 3 days incubation
Method: as §1, §2, §3, §5, §4

| Compound | EC50 (HBV) [µM] | CC50 (HepG2.117 cells) [µM] | EC50 (HBV; Hepatitis B virus, 72 h) [µM] | CC50 at 3 days [1] [µM] |
| --- | --- | --- | --- | --- |
| C=C[C@H](C)Nc1nc2c(c(=O)n1-c1ccc(C(=O)NC)cc1Cl)C[C@@H](C)N(C(=O)c1ccc(Br)c(C(F)(F)F)c1)C2 (atropisomer, axis not shown) [Compound 45, 4-[(6R)-7-[4-bromo-3-(trifluoromethyl)benzoyl]-6-methyl-2-[[(1S)-1-methylallyl]amino]-4-oxo-6,8-dihydro-5H-pyrido[3,4-d]pyrimidin-3-yl]-3-chloro-N-methyl-benzamide] | < 0.05 | 30.1 | – | – |
| C=CC(C)Nc1nc2c(c(=O)n1-c1ccc(C(=O)NC)cc1)C[C@@H](C)N(C(=O)c1ccc(Br)c(C(F)(F)F)c1)C2 (single isomer, unassigned) [Compound 2b] | < 0.05 | > 0.5 | – | – |
| C=CC(C)Nc1nc2c(c(=O)n1-c1ccc(-c3[nH]nnc3C)cc1)C[C@@H](C)N(C(=O)c1ccc(Br)c(C(F)(F)F)c1)C2 (single isomer, unassigned) [Compound 3b] | < 0.05 | > 0.5 | – | – |
| C=C[C@H](C)Nc1nc2c(c(=O)n1-c1cc3ncn(C)c3cc1F)C[C@@H](C)N(C(=O)c1ccc(Br)c(C(F)(F)F)c1)C2 [Compound 32b, (R)-7-(4-bromo-3-(trifluoromethyl)benzoyl)-2-(((S)-but-3-en-2-yl)amino)-3-(6-fluoro-1-methyl-1H-benzo[d]imidazol-5-yl)-6-methyl-5,6,7,8-tetrahydropyrido[3,4-d]pyrimidin-4(3H)-one] | < 0.05 | 21.9 | – | – |
| C=C[C@H](C)Nc1nc2c(c(=O)n1-c1ccc3c(ncn3C)n1)C[C@@H](C)N(C(=O)c1ccc(Br)c(C(F)(F)F)c1)C2 [Compound 40, (6R)-7-[4-bromo-3-(trifluoromethyl)benzoyl]-6-methyl-2-[[(1S)-1-methylallyl]amino]-3-(1-methylimidazo[4,5-b]pyridin-5-yl)-6,8-dihydro-5H-pyrido[3,4-d]pyrimidin-4-one] | – | – | < 0.05 | > 50 |
| C=C[C@H](C)Nc1nc2c(c(=O)n1-c1ccc(C(=O)NC)nc1)C[C@@H](C)N(C(=O)c1ccc(Br)c(C(F)(F)F)c1)C2 [Compound 41, 5-[(6R)-7-[4-bromo-3-(trifluoromethyl)benzoyl]-6-methyl-2-[[(1S)-1-methylallyl]amino]-4-oxo-6,8-dihydro-5H-pyrido[3,4-d]pyrimidin-3-yl]-N-methyl-pyridine-2-carboxamide] | – | – | < 0.05 | > 50 |
| C=C[C@H](C)Nc1nc2c(c(=O)n1-c1cnc(C(=O)NC)c(Cl)c1)C[C@@H](C)N(C(=O)c1ccc(Br)c(C(F)(F)F)c1)C2 [Compound 42, 5-[(6R)-7-[4-bromo-3-(trifluoromethyl)benzoyl]-6-methyl-2-[[(1S)-1-methylallyl]amino]-4-oxo-6,8-dihydro-5H-pyrido[3,4-d]pyrimidin-3-yl]-3-chloro-N-methyl-pyridine-2-carboxamide] | – | – | < 0.05 | > 50 |
| C=C[C@H](C)Nc1nc2c(c(=O)n1-c1ncc(C(=O)NC)cn1)C[C@@H](C)N(C(=O)c1ccc(Br)c(C(F)(F)F)c1)C2 [Compound 43, 2-[(6R)-7-[4-bromo-3-(trifluoromethyl)benzoyl]-6-methyl-2-[[(1S)-1-methylallyl]amino]-4-oxo-6,8-dihydro-5H-pyrido[3,4-d]pyrimidin-3-yl]-N-methyl-pyrimidine-5-carboxamide] | – | – | < 0.05 | > 50 |
| C=C[C@H](C)Nc1nc2c(c(=O)n1-c1cnc3c(ncn3C)n1)C[C@@H](C)N(C(=O)c1ccc(Br)c(C(F)(F)F)c1)C2 [Compound 46, (6R)-7-[4-bromo-3-(trifluoromethyl)benzoyl]-6-methyl-2-[[(1S)-1-methylallyl]amino]-3-(1-methylimidazo[4,5-b]pyrazin-5-yl)-6,8-dihydro-5H-pyrido[3,4-d]pyrimidin-4-one] | – | – | < 0.05 | > 50 |
| C=C[C@H](C)Nc1nc2c(c(=O)n1-c1cc(C)c3c(c1)ncn3C)C[C@@H](C)N(C(=O)c1ccc(Br)c(C(F)(F)F)c1)C2 [Compound 47, (6R)-7-[4-bromo-3-(trifluoromethyl)benzoyl]-3-(1,7-dimethylbenzimidazol-5-yl)-6-methyl-2-[[(1S)-1-methylallyl]amino]-6,8-dihydro-5H-pyrido[3,4-d]pyrimidin-4-one] | – | – | < 0.05 | 23.7 |
| C=C[C@H](C)Nc1nc2c(c(=O)n1-c1cc(F)c3c(c1)ncn3C)C[C@@H](C)N(C(=O)c1ccc(Br)c(C(F)(F)F)c1)C2 [Compound 48, (6R)-7-[4-bromo-3-(trifluoromethyl)benzoyl]-3-(7-fluoro-1-methyl-benzimidazol-5-yl)-6-methyl-2-[[(1S)-1-methylallyl]amino]-6,8-dihydro-5H-pyrido[3,4-d]pyrimidin-4-one] | – | – | < 0.05 | 26 |
| C=C[C@H](C)Nc1nc2c(c(=O)n1-c1cc(F)c3ncn(C)c3c1)C[C@@H](C)N(C(=O)c1ccc(Br)c(C(F)(F)F)c1)C2 [Compound 49, (6R)-7-[4-bromo-3-(trifluoromethyl)benzoyl]-3-(7-fluoro-3-methyl-benzimidazol-5-yl)-6-methyl-2-[[(1S)-1-methylallyl]amino]-6,8-dihydro-5H-pyrido[3,4-d]pyrimidin-4-one] | – | – | < 0.05 | 23 |
| C#Cc1ccc(C(=O)N2Cc3nc(N[C@@H](C)C=C)n(-c4ccc(C(=O)NC)cc4)c(=O)c3C[C@H]2C)cc1C(F)(F)F [Compound 50, 4-[(6R)-7-[4-ethynyl-3-(trifluoromethyl)benzoyl]-6-methyl-2-[[(1S)-1-methylallyl]amino]-4-oxo-6,8-dihydro-5H-pyrido[3,4-d]pyrimidin-3-yl]-N-methyl-benzamide] | – | – | < 0.05 | > 50 |
